# Entries after “also recorded” stand apart in the source; their conditions may differ.
# Legend:
# C. jeikeium = experiment: Kill or inhibit growth/proliferation; morphology, biofilm and growth disruption (Tables 5, 6); type: cell-based, Corynebacterium jeikeium; design: key: A: Peptide aggregates; B: Less hyphal formation; Clumps; Diffuse clumps and small polyps; F: Diffuse growth; H: Thin; I: Growth inhibition; Microcolony formation; Rippled; Small polyps; Thick; W: Halo formation on top, microlonies on bottom; further: test concentration or dose not given here
# microorganisms = experiment: Peptides having multiple activities (targeting/binding, antimicrobial, growth or phenotype altering)
# Description: In certain embodiments, peptides described herein can have multiple activities. Thus for example, a peptide can have both binding/targeting activity and antimicrobial activity. Such peptides can be used, e.g., in a chimeric construct, for any or all of these properties. Thus, for example, a peptide designated “B” in Table 8 can be used as a targeting peptide. If it is also designated G or M it can also be used for antimicrobial activity.
# MRSA = experiment: Kill or inhibit growth/proliferation; morphology, biofilm and growth disruption (Tables 5, 6); type: cell-based, Methicillin-resistant Staphylococcus aureus; design: key: A: Peptide aggregates; B: Less hyphal formation; Clumps; Diffuse clumps and small polyps; F: Diffuse growth; H: Thin; I: Growth inhibition; Microcolony formation; Rippled; Small polyps; Thick; W: Halo formation on top, microlonies on bottom; further: test concentration or dose not given here
# B. subtilis = experiment: as above; type: cell-based, Bacillus subtilis; design: key: A: Peptide aggregates; B: Less hyphal formation; Clumps; Diffuse clumps and small polyps; F: Diffuse growth; H: Thin; I: Growth inhibition; Microcolony formation; Rippled; Small polyps; Thick; W: Halo formation on top, microlonies on bottom
# M. luteus = experiment: as above; type: cell-based, Micrococcus luteus; design: key: A: Peptide aggregates; B: Less hyphal formation; Clumps; Diffuse clumps and small polyps; F: Diffuse growth; H: Thin; I: Growth inhibition; Microcolony formation; Rippled; Small polyps; Thick; W: Halo formation on top, microlonies on bottom; further: test concentration or dose not given here
# S. epidermidis = experiment: as above; type: cell-based, Staphylococcus epidermidis; design: key: A: Peptide aggregates; B: Less hyphal formation; Clumps; Diffuse clumps and small polyps; F: Diffuse growth; H: Thin; I: Growth inhibition; Microcolony formation; Rippled; Small polyps; Thick; W: Halo formation on top, microlonies on bottom
# C. jejuni = experiment: as above; type: cell-based, Campylobacter jejuni; design: key: A: Peptide aggregates; B: Less hyphal formation; Clumps; Diffuse clumps and small polyps; F: Diffuse growth; H: Thin; I: Growth inhibition; Microcolony formation; Rippled; Small polyps; Thick; W: Halo formation on top, microlonies on bottom; further: test concentration or dose not given here
# S. pneumoniae = experiment: as above; type: cell-based, Streptococcus pneumoniae; design: key: A: Peptide aggregates; B: Less hyphal formation; Clumps; Diffuse clumps and small polyps; F: Diffuse growth; H: Thin; I: Growth inhibition; Microcolony formation; Rippled; Small polyps; Thick; W: Halo formation on top, microlonies on bottom
# [1] = test system: microorganisms (e.g., bacteria, yeasts, fungi); experiment: Targeting peptide binding to target microorganisms (Table 3); conditions: preferably 1x PBS; for Target(s): microorganism(s) the targeting peptide binds; for Target(s) (microorganisms bound by the targeting peptide): peptide binding in aqueous buffers varied by peptide solubility
# E. faecalis = experiment: Kill or inhibit growth/proliferation; morphology, biofilm and growth disruption (Tables 5, 6); type: cell-based, Enterococcus faecalis; design: key: A: Peptide aggregates; B: Less hyphal formation; Clumps; Diffuse clumps and small polyps; F: Diffuse growth; H: Thin; I: Growth inhibition; Microcolony formation; Rippled; Small polyps; Thick; W: Halo formation on top, microlonies on bottom; further: test concentration or dose not given here
# C. albicans = experiment: as above; type: cell-based, Candida albicans; design: key: A: Peptide aggregates; B: Less hyphal formation; Clumps; Diffuse clumps and small polyps; F: Diffuse growth; H: Thin; I: Growth inhibition; Microcolony formation; Rippled; Small polyps; Thick; W: Halo formation on top, microlonies on bottom
# [2] = peptide binding conducted in aqueous buffers varied by peptide solubility
# Wherever Organism, effect (morphology, biofilm and growth disruption) is given: test concentration or dose not given here.
# Wherever Organism, effect is given: test concentration or dose not given here.
Substance,"Organism, effect (C. jeikeium)",Activities (microorganisms),"Organism, effect (MRSA)","Organism, effect (B. subtilis)","Organism, effect (M. luteus)","Organism, effect (C. jejuni)","Organism, effect (S. pneumoniae)",Target(s) (microorganisms bound by the targeting peptide) [1],"Organism, effect (morphology, biofilm and growth disruption) (S. pneumoniae)","Organism, effect (morphology, biofilm and growth disruption) (C. albicans)",other results
PF-145: peptide having multiple activities (GIVLTGRAGLVSGACSMALGVGLG; Peptide with targeting and/or antimicrobial activity),C. jeikeium (R),G B,MRSA (M),B. subtilis (C),M. luteus (A),C. jejuni (R),S. pneumoniae (R),–,–,–,"Organism, effect (S. epidermidis): S. epidermidis (D)"
PF-171: peptide having multiple activities (TQVTLCRTW; Peptide with targeting and/or antimicrobial activity),–,G B,MRSA (M),B. subtilis (D),M. luteus (R),C. jejuni (R),S. pneumoniae (D),–,–,–,"Organism, effect (S. epidermidis): S. epidermidis (R); Target(s) ([1]; binding in aqueous buffers depending on peptide solubility): S. epidermidis; also recorded: E. coli; also recorded: P. aeruginosa; also recorded: S. pneumoniae"
PF-548: peptide having multiple activities (chain 1 ARPIADLIHFNSTTVTASGDVYYGPG; chain 2 ARPIADLIHFNSTTVTASGDVYYGPG; Peptide with targeting and/or antimicrobial activity),C. jeikeium (R),G B,MRSA (M),B. subtilis (C),M. luteus (A),C. jejuni (D),S. pneumoniae (D),–,–,–,"Organism, effect (S. epidermidis): S. epidermidis (M)"
PF-553: peptide having multiple activities (chain 1 LTIVGNALQQKNQKLLLNQKKITSLG; chain 2 LTIVGNALQQKNQKLLLNQKKITSLG; Peptide with targeting and/or antimicrobial activity),C. jeikeium (R),G B,MRSA (M),B. subtilis (D),–,–,S. pneumoniae (R),–,–,–,"Target(s) [1, 2]: S. epidermidis and E. coli and P. aeruginosa and C. albicans and MRSA and S. pneumoniae and C. jeikeium"
PF-556: peptide having multiple activities (chain 1 SLQIRMNTLTAAKASIEAA; chain 2 SLQIRMNTLTAAKASIEAA; Peptide with targeting and/or antimicrobial activity),C. jeikeium (D),G B,MRSA (M),B. subtilis (C),M. luteus (A),C. jejuni (R),S. pneumoniae (D),–,–,–,"Organism, effect (S. epidermidis): S. epidermidis (A); Organism, effect (E. faecalis): E. faecalis (A)"
PF-564: peptide having multiple activities (chain 1 TIILNDQINSLQERLNKLNAETDRR; chain 2 TIILNDQINSLQERLNKLNAETDRR; Peptide with targeting and/or antimicrobial activity),C. jeikeium (R),G B,MRSA (C),B. subtilis (D),–,C. jejuni (R),–,–,–,–,"Target(s) [1, 2]: S. epidermidis; also recorded: C. albicans; also recorded: S. pneumoniae; also recorded: C. jeikeium"
PF-566: peptide having multiple activities (chain 1 EAQQVTQQLGADFNAITTPTATKV; chain 2 EAQQVTQQLGADFNAITTPTATKV; Peptide with targeting and/or antimicrobial activity),C. jeikeium (C),G B,MRSA (M),B. subtilis (C),M. luteus (D),C. jejuni (D),S. pneumoniae (D),–,–,–,"Target(s) [1, 2]: P. mirabilis; also recorded: S. pneumoniae"
PF-617: peptide having multiple activities (PMNAAEPE; Peptide with targeting and/or antimicrobial activity),–,G B,–,–,–,–,S. pneumoniae (I),P. aeruginosa; also recorded: C. albicans,–,–,"Organism, effect (E. faecalis): E. faecalis (H); Organism, effect (C. albicans): C. albicans (H)"
PF-640: peptide having multiple activities (chain 1 MGDINRNF; chain 2 MGDINRNF; Peptide with targeting and/or antimicrobial activity),–,G B,–,–,–,–,S. pneumoniae (I),C. albicans,–,–,"Organism, effect (E. faecalis): E. faecalis (H); Organism, effect (C. albicans): C. albicans (B)"
PF-645 (chain 1 SNSVQQG; chain 2 SNSVQQG; Peptide with targeting and/or antimicrobial activity),–,–,–,–,–,–,S. pneumoniae (I),Mycobacteria spp,–,–,"Organism, effect (C. albicans): C. albicans (B)"
PF-646 (chain 1 APASPGRRPG; chain 2 APASPGRRPG; Peptide with targeting and/or antimicrobial activity),–,–,–,–,–,–,–,Mycobacteria spp,S. pneumoniae (H),–,"Organism, effect (C. albicans): C. albicans (B)"
PF-647 (chain 1 GTFLGQKCAAATAS; chain 2 GTFLGQKCAAATAS; Peptide with targeting and/or antimicrobial activity),–,–,–,–,–,–,–,Mycobacteria spp,S. pneumoniae (R),C. albicans (B),–
PF-654 (chain 1 LSGRLAGRR; chain 2 LSGRLAGRR; Peptide with targeting and/or antimicrobial activity),–,–,–,–,–,–,–,Mycobacteria spp,S. pneumoniae (A),C. albicans (B),"Organism, effect (morphology, biofilm and growth disruption) (MRSA): MRSA (R)"
PF-684 (chain 1 RKLSLASGFALWRRSLV; chain 2 RKLSLASGFALWRRSLV; Peptide with targeting and/or antimicrobial activity),–,–,–,–,–,–,–,Mycobacteria spp,S. pneumoniae (C),C. albicans (B),"Organism, effect (morphology, biofilm and growth disruption) (E. faecalis): E. faecalis (A)"
PF-697 (chain 1 RADARAK; chain 2 RADARAK; Peptide with targeting and/or antimicrobial activity),–,–,–,–,–,–,–,Mycobacteria spp,S. pneumoniae (H),C. albicans (H),–
PF-698 (chain 1 SSGRAGVKCRRPTGR; chain 2 SSGRAGVKCRRPTGR; Peptide with targeting and/or antimicrobial activity),–,–,–,–,–,–,–,Mycobacteria spp,S. pneumoniae (A),C. albicans (H),"Organism, effect (morphology, biofilm and growth disruption) (E. faecalis): E. faecalis (A)"

# — US20110039762A1, “TARGETED ANTIMICROBIAL MOIETIES” (C3 JIAN, INC., priority 2009, published 2011)
